Measurements from US10183936B2, “Hepatitis B core protein allosteric modulators” (priority 2014, dated 2019).

Columns and labels:
[1] = system: HBV viral production in AD38 cells; test: Viral load production in AD38 cells by quantitative PCR of the HBV core sequence in supernatant; assay type: cell-based; details: Hepatitis B virus, 144 h; 10 μM compound, 6 days at 37° C., viral load in supernatant compared against DMSO control wells; read-out: AD38 Viral Load (CpAM/DMSO %) at 10 μM
Summary of the method: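 AD38 cells seeded at 50,000/well, treated 6 days at 37° C with compound added as 10× solution in 10% DMSO. HBV core sequence in clarified supernatant quantified by TaqMan qPCR against known standards; viral load compared with DMSO control wells.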

[2] = system: AD38 cells; test: Viability of AD38 cells (Promega CellTiter-Glo) at the end of compound treatment; assay type: cell-based; details: 10 μM compound, 6 days, luminescence normalized against DMSO control wells (controls being 100%)
Summary of the method: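 AD38 cells seeded at 50,000/well received compound from a 10× solution in 10% DMSO and were incubated 6 days at 37° C. Viability was then read by CellTiter-Glo luminescence in tetracycline-free medium with 2% FBS and 1% DMSO, normalized to DMSO control wells (100%) and reported as percent viability.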

SMILES | activity at 10 µM [1] [%] | AD38 Viability Normalized Result (CPAM/DMSO %) at 10 μM [2] [%]
O=C(NCc1cnc(-c2ccccc2)nc1)c1ccc2c(c1)NC(=O)c1ccccc1S2(=O)=O [Compound 1635] | 1 | 93
O=C(NCCC1CCCO1)c1ccc2c(c1)NC(=O)c1ccccc1S2(=O)=O (stereo not drawn) [Compound 1636] | 0 | 111
O=C(Nc1nc2ccc(F)cc2s1)c1ccc2c(c1)NC(=O)c1ccccc1S2(=O)=O [Compound 1637] | 32 | 123
